Values after ≈ are worked out from the molar mass of the structure shown.

One assay concerns RAW264.7. Description: Antiinflammatory activity in mouse RAW264.7 cells assessed as inhibition of LPS-induced nitric oxide production. It is filed as functional, cell-based.
Conditions: not given
A word on the IC50: it is the concentration needed to halve the response being measured. As to `O=C1CC(c2ccc(O)cc2O)Oc2cc(O)ccc21` (configuration not stated), the IC50 was found to be 10.3 µg/mL.

Take `CC[C@H](CC[C@@H](C)[C@H]1CC[C@H]2[C@@H]3C[C@H](O)C4=CC(=O)CC[C@]4(C)[C@H]3CC[C@]12C)C(C)C`: the IC50 is 86.7 µM.

As to `C=C(C)[C@@H]1CC[C@]2(C(=O)O)CC[C@]3(C)[C@H](CC[C@@H]4[C@@]5(C)CC[C@H](O)C(C)(C)[C@@H]5CC[C@]43C)[C@@H]12` [BETULINIC ACID], the IC50 amounted to 42.5 µM.

Turning to `O=c1cc(-c2ccc(O)cc2O)oc2cc(O)cc(O)c12` [NORARTOCARPETIN], the IC50 stood at 6.1 µg/mL.

Turning to `O=C1CC(c2ccc(O)cc2O)Oc2cc(O)cc(O)c21` (configuration not stated) [STEPPOGENIN], the half-maximal inhibitory concentration (IC50) is 12.1 µg/mL.

As to `CC(C)=CCc1c(-c2ccc(O)cc2O)oc2cc3c(c(O)c2c1=O)C=CC(C)(C)O3` [CUDRAFLAVONE B], the IC50 turned out to be 7.4 µg/mL.

With `CC(C)[C@@H](C)/C=C/[C@@H](C)[C@H]1CC[C@@H]2[C@]1(C)CC[C@H]1[C@]23C=C[C@]2(C[C@@H](O)CC[C@]12C)OO3` [ERGOSTEROL PEROXIDE], the IC50 was 28.7 µM.

In the case of `CC(C)=CCc1c(O)ccc(C(=O)[C@H]2[C@@H](c3cc(O)cc4oc(-c5ccc(O)cc5O)cc34)C=C(C)C[C@@H]2c2ccc(O)cc2O)c1O`, the IC50 was determined as 12.8 µg/mL.

For the compound `CC(C)=CCC/C(C)=C/Cc1c(O)cc2oc(-c3ccc(O)cc3)cc(=O)c2c1O`, the concentration for half-maximal inhibition (IC50) turned out to be 4.1 µg/mL.

In the case of `C=C(C)C(O)Cc1c(-c2ccc(O)cc2O)oc2c(CC=C(C)C)c(O)cc(O)c2c1=O` (configuration not stated), the IC50 was found to be 7.3 µg/mL.

Consider `C=C(C)C(O)Cc1c(O)cc(O)c2c(=O)c(CC=C(C)C)c(-c3ccc(O)cc3O)oc12` (configuration not stated), for which the IC50 turned out to be 6.6 µg/mL.

Take `COc1cc(/C=C/C(=O)O[C@H]2CC[C@]3(C)[C@H]4CC=C5[C@@H]6CC(C)(C)CC[C@]6(C(=O)O)CC[C@@]5(C)[C@]4(C)CC[C@H]3C2(C)C)ccc1O`: the half-inhibitory concentration (IC50) was 54.1 µM.

As for `CC[C@H](CC[C@@H](C)[C@H]1CC[C@H]2[C@@H]3CC=C4C[C@@H](O[C@@H]5O[C@H](CO)[C@@H](O)[C@H](O)[C@H]5O)CC[C@]4(C)[C@H]3CC[C@]12C)C(C)C` [SITOGLUSIDE], the IC50 is 77.4 µM.

For the compound `CC(C)=CCc1c(O)ccc(C(=O)/C=C/c2ccc(O)cc2)c1O` [ISOBAVACHALCONE], the IC50 came to 3.5 µg/mL.

With `CC(C)=CCC1C(=O)c2c(O)cc3c(c2OC1c1ccc(O)cc1O)C=CC(C)(CO)O3` (configuration not stated), the IC50 worked out at 5.2 µg/mL.

As to `CC[C@H](CC[C@@H](C)[C@H]1CC[C@H]2[C@@H]3CCC4=CC(=O)CC[C@]4(C)[C@H]3CC[C@]12C)C(C)C`, the IC50 came out at 15.9 µM.

For the compound `CC(C)=CCc1c(-c2ccc(O)cc2O)oc2c(CC=C(C)C)c(O)cc(O)c2c1=O` [KUWANON C], the IC50 came to 9.6 µg/mL.

In the case of `CC(C)=CCc1c(-c2ccc(O)cc2O)oc2cc(O)cc(O)c2c1=O` [ALBANIN A], the IC50 worked out at 9.2 µg/mL.

Take `CC(C)=CCc1c(-c2ccc(O)cc2O)oc2cc3c(c(O)c2c1=O)CC(C(C)(C)O)O3` (configuration not stated): the IC50 was 2.2 µg/mL.

Consider `CC(C)=CCC1C(=O)c2c(O)cc3c(c2OC1c1ccc(O)cc1O)C=CC(C)(C)O3` (configuration not stated), for which the IC50 is 5.3 µg/mL.

`C=C(C)C(=O)Cc1c(-c2ccc(O)cc2O)oc2c(CC=C(C)C)c(O)cc(O)c2c1=O`: the IC50 was found to be 4.3 µg/mL.

The next assay deals with RAW264.7. Briefly: Antiinflammatory activity in mouse RAW264.7 cells assessed as inhibition of LPS-induced nitric oxide production after 24 hrs by Griess reagent based assay. The assay is classed as functional, cell-based. Particulars: RAW264.7, 24 h. A general note: Nitrite, measured by Griess reagent, commonly stands in for NO production.
For the compound `CC1(C)C=Cc2c(cc(O)cc2-c2cc3ccc(O)cc3o2)O1`, the IC50 is 18.5 µg/mL (≈ 60 µM).

For the compound `COc1cc(O)cc(-c2cc3cc(OC)c(O)cc3o2)c1`, the IC50 amounted to 7.5 µg/mL (≈ 26.2 µM).

For `C=C(C)[C@H](O)CC/C(C)=C/Cc1c(O)cc2oc(-c3ccc(O)cc3)cc(=O)c2c1O`, the IC50 turned out to be 3.5 µg/mL (≈ 8.28 µM).

With `CC(C)=CCc1c(O)ccc(C(=O)/C=C/c2ccc(O)c([C@H]3C=C(C)CC(c4ccc(O)cc4O)[C@H]3C(=O)c3ccc(O)cc3O)c2O)c1O` (some centres not stated), the IC50 worked out at 8.5 µg/mL (≈ 12.5 µM).

`COc1c(-c2ccc(O)c(O)c2)oc2cc(O)cc(O)c2c1=O` [3-O-METHYLQUERCETIN]: the IC50 worked out at 3.5 µg/mL (≈ 11.1 µM).

In the case of `O=C(/C=C/c1ccc(O)cc1)c1ccc(O)cc1O` [ISOLIQUIRITIGENIN], the half-maximal inhibitory concentration (IC50) was determined as 3.4 µg/mL (≈ 13.3 µM).

The values above are taken from ChEMBL document CHEMBL4406802, “Human disorders associated with inflammation and the evolving role of natural products to overcome” (Eur J Med Chem, 2019).
